Results from patent US20160250245A1, “Methods and Pharmaceutical Composition for the Treatment of Polyomavirus Infections” (INSERM (INSTITUT NATIONAL DE LA SANTÉ ET DE LA RECHERCHE …, priority 2013, published 2016).

How the values were obtained:
BKV (Dunlop strain) = assay: BKV replication in RPTEC primary cells, extracellular BKV DNA load by qPCR; format: cell-based, BK virus
Experimental: (§1) For each assay, one cell aliquot containing 2×10^6 cells was thawed and cells were cultured for six days in one 75 cm^2 culture flask. Cells were then trypsinized, washed, resuspended and seeded at 5×10^4 cells/well in 1 ml medium in flat bottom 24-well collagen-coated microplates. After 48 h incubation, medium was replaced with fresh REBM base medium without grown factors and supplemented with inactivated fetal bovine serum (FBS Brazilian origin, Lonza) and penicillin-streptomycin 10000 U/μg to a final concentration of 2% and 1% respectively. 48 h later, cells at 95% confluence were infected with 1×10^9 genomes per well. After 4 h incubation (37° C., 5% CO2), medium was removed and replaced with 1 ml of fresh medium without grown factors after two washes with and without gemcitabine or cidofovir at the indicated concentrations. 72 h later, at day 3 of treatment, supernatants were harvested and frozen at −80° C. and medium was replaced with fresh medium without grown factors and with the indicated concentrations of gemcitabine or cidofovir. After 48 h incubation, at day 5 of treatment, cell culture supernatants were harvested and frozen at −80° C.
(§2) Extracellular DNA was extracted from 100 μL frozen supernatants using the automated nucleic acids extractor Nuclisens Easymag (BioMérieux, Marcy l'Etoile, France) following the manufacturer's Generic 2.0.1 procedure. Extracts were resuspended in a final volume of 25 μL buffer 3.
(§3) To quantify extracellular BKV DNA load, a quantitative PCR (qPCR) was done using the following primers (Eurofins MWG Operon) and probe (Applied Biosystem, UK): […]
(§4) Reactions were performed in a total volume of 25 μl with 5 μL of DNA extract, […] TaqMan Universal PCR Master Mix (Applied Biosystems, Hoffmann La Roche, Meylan, France), 6.5 μL H2O, 2.5 μL of each primer at 30 μM and 1 μL of probe at 10 μM.
(§5) Amplification was performed using the Rotor-Gene 6000 (Corbett Life Science) with the following PCR program: 50° C., 2 min; denaturation at 95° C., 10 min; and 45 cycles of 95° C., 15 sec; 60° C., 60 sec. Quantification was calculated with an external calibration curve using BKV plasmid constructs.

BKV (Dunlop) = assay: BKV replication in Vero cell line, extracellular BKV DNA load by qPCR; format: cell-based, BK virus; conditions: Vero cells
Experimental: (§6) For each assay, one cell aliquot was thawed and cells cultured for three days in one 25 cm^2 culture flask. Cells were then trypsinized, washed, resuspended and seeded at 1×10^4 cells/well in […] in flat bottom 96-well microplates. After 24 h incubation, cells at 75% confluence were infected with 1×10^9 genomes per well in BK medium (199 medium with 2% FBS, 2% HEPES, 1% penicillin-streptomycin 10000 U/μg final concentration). After 4 h incubation (37° C., 5% CO2), medium was removed and replaced with 200 μL of fresh BK medium after four washes. 72 h later, medium was replaced with fresh BK medium with or without gemcitabine at the indicated final concentrations. After 48 h incubation, cell culture supernatants were harvested and frozen at −80° C.
as §2, §3, §4, §5

RPTEC primary cells = assay: Cytotoxicity / cell growth by LDH activity in RPTEC primary cells; format: cell-based, human
Experimental: as §1
(§7) Cytotoxicity was analyzed by two colorimetric assays using the “Cytotoxicity Detection Kit (LDH)” and “Cell proliferation ELISA, BrdU” (Roche Diagnostics, Meylan, France).
(§8) The quantity of LDH was measured in cell culture supernatants and cells from every wells used for the quantification of virus replication including infected and non-infected wells and in presence or not of gemcitabine at the end of the test period according to the manufacturer's protocol. Absorbance at 492 nm (sample) and at 620 nm (background) was recorded 30 min after addition of the reaction mixture. Medium alone served as blank. Measure of LDH activity in culture supernatants was used to monitoring cell lysis and the activity in cell lysates to monitoring cell viability and mass at 72 and 120 h p.i

Vero cell line = format: cell-based, Cercopithecus aethiops; conditions: Vero cell culture system
Experimental: as §6, §7
as §8, with “Measure of LDH activity in culture supernatants was used to monitoring cell lysis and the activity in cell lysates to monitoring cell viability and mass at 72 and 120 h p.i” left out

T antigen = assay: Immunofluorescence of T antigen expression in infected RPTEC cells; format: cell-based, BK virus; conditions: 5 days of treatment
Experimental: (§9) For each assay, one cell aliquot containing 2×10^6 cells was thawed and cells were cultured for six days in one 75 cm^2 culture flask. Cells were then trypsinized, washed, resuspended and seeded at 5×10^4 cells/well in 1 ml medium in flat bottom 24-well collagen-coated microplates. After 48 h incubation, medium was replaced with fresh REBM base medium without grown factors and supplemented with inactivated fetal bovine serum (FBS Brazilian origin, Lonza) and penicillin-streptomycin 10000 U/μg to a final concentration of 2% and 1% respectively. 48 h later, cells at 95% confluence were infected with 1×10^9 genomes per well. After 4 h incubation (37° C., 5% CO2), medium was removed and replaced with 1 ml of fresh medium without grown factors after two washes with and without gemcitabine or cidofovir at the indicated concentrations. 72 h later, at day 3 of treatment, supernatants were harvested and frozen at −80° C. and medium was replaced with fresh medium without grown factors and with the indicated concentrations of gemcitabine or cidofovir. After 48 h incubation, at day 5 of treatment, cell culture supernatants were harvested and frozen at −80° C. […]

VP-1 = assay: Immunofluorescence of VP-1 expression in infected RPTEC cells; format: cell-based, BK virus; conditions: 5 days of treatment
Experimental: as §9

| SMILES | IC50 (BKV (Dunlop strain); Betapolyomavirus hominis, RPTEC, BKV Dunlop, read-out: IC50, inhibition of viral replication) | IC90 (BKV (Dunlop strain); Betapolyomavirus hominis, RPTEC, BKV Dunlop, read-out: IC90, inhibition of viral replication) | inhibitory effect on viral replication, 5 days versus 3 days of treatment (BKV (Dunlop strain); RPTEC) | concentrations repressing BKV replication (BKV (Dunlop strain); summary: two different cellular models, including primary renal epithelial cells) | IC50 (BKV (Dunlop); Betapolyomavirus hominis, 48 h, BKV Dunlop, two days of treatment, read-out: IC50, inhibition of viral replication) | IC90 (BKV (Dunlop); Betapolyomavirus hominis, 48 h, BKV Dunlop, two days of treatment, read-out: IC90, inhibition of viral replication) | inhibition of viral replication (BKV (Dunlop); concentration as low as 10 nM, in two days) | toxicity (RPTEC primary cells) | effect on cellular growth (LDH) at higher concentrations (RPTEC primary cells; RPTEC, 50 nM range) | effect on cellular growth measured by the intracellular LDH activity (RPTEC primary cells; infected RPTEC, effective antiviral concentrations (up to 10 nM), day 5) | IC50 specificity index (Vero cell line) | expression of the early protein antigen T (T antigen) | expression of the late capsid protein VP-1 (VP-1) | concentration range repressing BKV replication (BKV (Dunlop strain); RPTEC, same conditions as gemcitabine) |
| --- | --- | --- | --- | --- | --- | --- | --- | --- | --- | --- | --- | --- | --- | --- |
| Nc1ccn(C2OC(CO)C(O)C2(F)F)c(=O)n1 (centres unmarked) [gemcitabine, 4-amino-1-[3,3-difluoro-4-hydroxy-5-(hydroxymethyl)tetrahydrofuran-2-yl]-1H-pyrimidin-2-one] | ~10 nM | ~50 nM | higher after 5 days than after 3 days | ~10 nM | 1.5 to 2 nM | 2.5 to 5 nM | totally inhibited | no toxicity was observed | seemed to slow down | could suppress the inhibitory effect of viral infection on the cellular growth | ≥ 10 | inhibited | inhibited |  |
| Nc1ccn(C[C@@H](CO)OCP(=O)(O)O)c(=O)n1 [cidofovir] |  |  |  |  |  |  |  |  |  |  |  |  |  | μM range |
